Data published in PMC13608006 (Journal of medicinal chemistry, 2018).

Key:
EV-A71 = test: antiviral CPE assay, anti-EV-A71 in LLC cells; assay type: cell-based, enterovirus 71 (EV-A71); details: SI50 = CC50/EC50
CV-B3 (CVB3-H3) = assay type: cell-based, coxsackievirus B3; details: for SI50 (CV-B3 in HeLa cells): SI50 = CC50/EC50

Compound | SI50 (EV-A71 in LLC cells) (EV-A71) | SI50 (CV-B3 in HeLa cells) (CV-B3 (CVB3-H3)) | antiviral activities against coxsackievirus B3 (CV-B3) (CV-B3 (CVB3-H3))
CC(C)n1ncc2c(C(=O)Nc3ccccc3F)cc(-c3ccccc3)nc21 [JX002, N-(2-Fluorophenyl)-1-isopropyl-6-phenyl-1H-pyrazolo[3,4-b]pyridine-4-carboxamide] | SI50: >35.1 | SI50: 8.3 | 
CC(C)n1ncc2c(C(=O)Nc3ccccc3F)cc(-c3ccncc3)nc21 [JX003, N-(2-Fluorophenyl)-1-isopropyl-6-(pyridin-4-yl)-1H-pyrazolo[3,4-b]pyridine-4-carboxamide] |  | SI50: 7.4 | 
CC(C)n1ncc2c(C(=O)Nc3ccccc3F)cc(-c3ccccn3)nc21 [JX004, N-(2-Fluorophenyl)-1-isopropyl-6-(pyridin-2-yl)-1H-pyrazolo[3,4-b]pyridine-4-carboxamide] |  | SI50: >29.0 | 
CC(C)n1ncc2c(C(=O)Nc3ccccc3F)cc(-c3cccnc3)nc21 [JX005, N-(2-Fluorophenyl)-1-isopropyl-6-(pyridin-3-yl)-1H-pyrazolo[3,4-b]pyridine-4-carboxamide] |  | SI50: 5.4 | 
CC(C)n1ncc2c(C(=O)Nc3ccc(F)cc3F)cc(-c3cccs3)nc21 [JX008, N-(2,4-Difluorophenyl)-1-isopropyl-6-(thiophen-2-yl)-1H-pyrazolo[3,4-b]pyridine-4-carboxamide] | SI50: >125.0 | SI50: >142.9 | 
CC(C)n1ncc2c(C(=O)Nc3c(F)cccc3F)cc(-c3cccs3)nc21 [JX009, N-(2,6-Difluorophenyl)-1-isopropyl-6-(thiophen-2-yl)-1H-pyrazolo[3,4-b]pyridine-4-carboxamide] | SI50: >58.8 | SI50: >62.5 | 
CC(C)n1ncc2c(C(=O)Nc3ccccc3F)cc(-c3cncs3)nc21 [JX010, N-(2-Fluorophenyl)-1-isopropyl-6-(thiazol-5-yl)-1H-pyrazolo[3,4-b]pyridine-4-carboxamide] | SI50: 27.0 | SI50: >60.6 | 
O=C(Nc1ccccc1F)c1cc(-c2cccs2)nc2c1cnn2-c1ccccc1 [JX012, N-(2-Fluorophenyl)-1-phenyl-6-(thiophen-2-yl)-1H-pyrazolo[3,4-b]pyridine-4-carboxamide] |  |  | none of the above analogs demonstrated antiviral activities
CC(C)(C)n1ncc2c(C(=O)Nc3ccccc3F)cc(-c3cccs3)nc21 [JX013, 1-(tert-Butyl)-N-(2-fluorophenyl)-6-(thiophen-2-yl)-1H-pyrazolo[3,4-b]pyridine-4-carboxamide] |  |  | none of the above analogs demonstrated antiviral activities
O=C(Nc1ccccc1F)c1cc(-c2cccs2)nc2c1cnn2C1CCC1 [JX014, 1-Cyclobutyl-N-(2-fluorophenyl)-6-(thiophen-2-yl)-1H-pyrazolo[3,4-b]pyridine-4-carboxamide] |  |  | none of the above analogs demonstrated antiviral activities
CC(C)n1ncc2c(C(=O)Nc3ccc(F)c(F)c3)cc(-c3cccs3)nc21 [JX015, N-(3,4-Difluorophenyl)-1-isopropyl-6-(thiophen-2-yl)-1H-pyrazolo[3,4-b]pyridine-4-carboxamide] |  | SI50: >153.8 | 
CC(C)n1ncc2c(C(=O)Nc3ccc(F)cc3)cc(-c3cccs3)nc21 [JX017, N-(4-Fluorophenyl)-1-isopropyl-6-(thiophen-2-yl)-1H-pyrazolo[3,4-b]pyridine-4-carboxamide] | SI50: >222.2 | SI50: >285.7 | 
CC(C)n1ncc2c(C(=O)Nc3cc(F)ccc3F)cc(-c3cccs3)nc21 [JX018, N-(2,5-Difluorophenyl)-1-isopropyl-6-(thiophen-2-yl)-1H-pyrazolo[3,4-b]pyridine-4-carboxamide] | SI50: 28.6 | SI50: >74.1 | 
CC(C)n1ncc2c(C(=O)Nc3cccc(F)c3F)cc(-c3cccs3)nc21 [JX019, N-(2,3-Difluorophenyl)-1-isopropyl-6-(thiophen-2-yl)-1H-pyrazolo[3,4-b]pyridine-4-carboxamide] | SI50: 25.0 | SI50: >74.1 | 
CC(C)n1ncc2c(C(=O)Nc3c(F)cc(F)cc3F)cc(-c3cccs3)nc21 [JX020, 1-Isopropyl-6-(thiophen-2-yl)-N-(2,4,6-trifluorophenyl)-1H-pyrazolo[3,4-b]pyridine-4-carboxamide] | SI50: >66.7 | SI50: >111.1 | 
CC(C)n1ncc2c(C(=O)Nc3cccc(F)c3)cc(-c3cccs3)nc21 [JX021, N-(3-Fluorophenyl)-1-isopropyl-6-(thiophen-2-yl)-1H-pyrazolo[3,4-b]pyridine-4-carboxamide] | SI50: >83.3 | SI50: >250.0 | 
O=C(Nc1ccccc1F)c1cc(-c2cccs2)nc2c1cnn2CC(F)(F)F [JX022, N-(2-Fluorophenyl)-6-(thiophen-2-yl)-1-(2,2,2-trifluoroethyl)-1H-pyrazolo[3,4-b]pyridine-4-carboxamide] |  |  | none of the above analogs demonstrated antiviral activities
CC(C)n1ncc2c(C(=O)Nc3ccc(F)cc3)cc(-c3ccco3)nc21 [JX026, N-(4-Fluorophenyl)-6-(furan-2-yl)-1-isopropyl-1H-pyrazolo-[3,4-b]pyridine-4-carboxamide] | SI50: >76.9 | SI50: >83.0 | 
O=C(Nc1ccc(F)cc1)c1cc(-c2cccs2)nc2c1cnn2C1CCCC1 [JX027, 1-Cyclopentyl-N-(4-fluorophenyl)-6-(thiophen-2-yl)-1H-pyrazolo[3,4-b]pyridine-4-carboxamide] |  |  | none of the above analogs demonstrated antiviral activities
O=C(Nc1ccc(F)cc1)c1cc(-c2cccs2)nc2c1cnn2C1CCCCC1 [JX028, 1-Cyclohexyl-N-(4-fluorophenyl)-6-(thiophen-2-yl)-1H-pyrazolo[3,4-b]pyridine-4-carboxamide] |  |  | none of the above analogs demonstrated antiviral activities
O=C(Nc1ccc(F)cc1)c1cc(-c2cccs2)nc2c1cnn2C1CCCCCC1 [JX029, 1-Cycloheptyl-N-(4-fluorophenyl)-6-(thiophen-2-yl)-1H-pyrazolo[3,4-b]pyridine-4-carboxamide] |  |  | none of the above analogs demonstrated antiviral activities
COc1ccc(Cn2ncc3c(C(=O)Nc4ccc(F)cc4)cc(-c4cccs4)nc32)cc1 [JX031, N-(4-Fluorophenyl)-1-(4-methoxybenzyl)-6-(thiophen-2-yl)-1H-pyrazolo[3,4-b]pyridine-4-carboxamide] |  |  | none of the above analogs demonstrated antiviral activities
O=C(Nc1ccc(F)cc1)c1cc(-c2cccs2)nc2[nH]ncc12 [JX032, N-(4-Fluorophenyl)-6-(thiophen-2-yl)-1H-pyrazolo[3,4-b]-pyridine-4-carboxamide] |  |  | none of the above analogs demonstrated antiviral activities
CC(C)n1ccc2c(C(=O)Nc3ccc(F)cc3)cc(-c3cccs3)nc21 [JX037, N-(4-Fluorophenyl)-1-isopropyl-6-(thiophen-2-yl)-1H-pyrrolo[2,3-b]pyridine-4-carboxamide] |  | SI50: 64.5 | 
